Assay results reported in US5292521A, “Solid oral preparation containing a pyrrolidine derivative with a catechol group” (priority 1990, dated 1994).
Where two headings read alike, the source gives them in different places.

Key:
[1] = Drug disposition after intravenous injection to beagles, plasma concentration-time curve (Experimental Example 1); format: in vivo; settings: dog, 1 mg/kg iv; for half-life: iv, 1 mg/kg
Protocol: 1 mg/kg of compound (VIII) was administered to beagles by intravenous injection and the plasma concentration-time curve thereof of prepared to find that the half-life composed of three phases (phases a, b and c).

[2] = Correlation between AUC and oral dose in beagles, powder of ten-fold dilution with lactose in capsule; bioavailability from regression line (Experimental Example 2); format: in vivo; settings: oral
Protocol: Compound (VIII) or compound V was formulated into a powder of ten-fold dilution with lactose. It was given to beagles in an amount ranging from 0.3 to 30 mg/kg as a capsule by oral administration and the plasma concentration-time curve thereof was prepared. The regression line equation was as follows: […]

[3] = Oral administration to fasted beagles of compound (II) or (III) with ascorbic acid, plasma drug disposition parameters (Experimental Examples 5 and 6); settings: for AUC(0-t) at 8 h / Cmax / Tmax: po, 3 mg/kg, n=2; for AUC(0-t) at 8 h: AUC (0-8 hr) mean ± SE; for Cmax: Cmax mean ± SE; for Tmax: Tmax mean ± SE
Protocol: The term "bioavailability" herein is defined as follows: a plasma concentration-time curve of a drug after being administered once is prepared in each case of administration by intravenous injection and oral administration with the same amount of the drug, and the availability is represented by the ratio (F) of the area under the plasma concentration-time curve in the case of oral administration ([AUC]PO)to the area under the plasma concentration-time curve in the case of intravenous injection ([AUC]IV): [formula]
The ratio of an AUC value obtained when one or more compounds selected from the group consisting of organic acids and salts thereof are added to an AUC value obtained when no such compound(s) is (are) added will be referred to as "addition effect ratio".
350 mg of ascorbic acid and 70 mg of lactose were added to 70 mg of compound (II) and the mixture was thoroughly pulverized and mixed in a mortar. The mixture was filled in each of No. 2 gelatin capsules in such an amount that the dose of compound (II) would be 3 mg/kg to obtain a preparation.
A control sample free from ascorbic acid was prepared by preparing a powder of 7-fold dilution with lactose (70 mg of compound (II) plus 420 mg of lactose) and filled in No. 2 capsules in such an amount that the dose of compound (II) would be 3 mg/kg to obtain a preparation.
(a) Administration and collection of blood sample
(§1) Four beagles were divided into two groups (i.e. a group to which ascorbic acid was given and a control group) after fasting overnight (14 hours) and a preparation comprising 3 mg/kg of compound (II) and 15 mg/kg of ascorbic acid or a control preparation comprising no ascorbic acid was given together with 30 ml of water by oral administration. No food was given also in the course of collection of blood sample. 3 ml of the whole blood was sampled through a vein of a foreleg by means of a heparinized syringe, immediately cooled with ice/water and centrifuged (1200 rpm, 3 min, 4° C.). The blood plasma was separated and a citrate buffer solution (pH 3.5, 100 μl) was added thereto to adjust the pH to 5.0. The plasma thus treated was kept frozen at -20° C. The points of collection of blood samples were before the administration and 10, 20, 30 and 45 minutes and 1, 1.5, 2, 3, 4, 6 and 8 hours after the administration.
(b) Method of analysis of concentration of unchanged substance in blood plasma
(c) HPLC determination conditions
The drug disposition parameters of each sample were determined from the data obtained by the oral administration of the preparation comprising 3 mg/kg of compound (II) and 15 mg/kg of ascorbic acid or a control preparation comprising no ascorbic acid to beagles while they were kept fasting.
350 mg of ascorbic acid and 70 mg of lactose were added to 70 mg of compound (III) and the mixture was thoroughly pulverized and mixed in a mortar. The mixture was filled in each of No. 2 gelatin capsules in such an amount that the dose of compound (III) would be 3 mg/kg to obtain a preparation.
A control sample free from ascorbic acid was prepared by preparing a powder of 7-fold dilution with lactose (70 mg of compound (III) plus 420 mg of lactose) and filled in No. 2 capsules in such an amount that the dose of compound (III) would be 3 mg/kg to obtain a preparation.
as §1, with “(III)” for “(II)”, “syringe,” for “syringe, immediately”, “5.0.” for “5.0. The plasma thus treated was kept frozen at -20° C. The points of collection of blood samples were before the administration and 10, 20, 30 and 45 minutes and 1, 1.5, 2, 3, 4, 6 and 8 hours after the administration.”

[4] = dog, in vivo, 3 mg/kg oral + ascorbic acid 15 mg/kg
[5] = dog, in vivo, 3 mg/kg oral, none (control)
[6] = dog, plasma, 3 mg/kg oral + ascorbic acid 15 mg/kg
[7] = dog, plasma, 3 mg/kg oral, none (control)

**Q.** With `Br.Oc1ccc([C@@H]2CNC[C@H]2c2cccc(O)c2Cl)cc1O` (relative stereo) [compound (VIII), trans-3-(2-chloro-3-hydroxyphenyl)-4-(3,4-dihydroxyphenyl)pyrrolidine hydrobromide] as the compound, how does the clearance ([1]; read-out: CLtotal) read?
**A.** 78 mL/min/kg

**Q.** What about the C0 ([1]; read-out: CP^0) of the same compound?
**A.** 2290 ng/mL

**Q.** And the MRT ([1]; read-out: MRT (mean residence time in the plasma) (converted))?
**A.** 14.5 min

**Q.** And the Vd ([1]; read-out: Vc)?
**A.** 0.44 L/kg

**Q.** What about the half-life ([1]; phase a, read-out: t1/2a) of the same compound?
**A.** 1.3 min

**Q.** And the half-life ([1]; phase b, read-out: t1/2b)?
**A.** 8.11 min

**Q.** What about the half-life ([1]; phase c, read-out: t1/2c) of the same compound?
**A.** 26.9 min

**Q.** And the bioavailability ([2]; dog, plasma, efficacious dose around 3 to 5 mg/kg)?
**A.** 4 to 5%

**Q.** What about the “gradient of regression line log(AUC) vs log(dose)” value ([2]; 0.3 to 30 mg/kg) of the same compound?
**A.** 1.218

**Q.** What about the “increase of AUC value when the dose is increased 10-fold” value ([2]; 0.3 to 30 mg/kg) of the same compound?
**A.** 16.5 -fold

**Q.** What about the “intercept of regression line log(AUC) vs log(dose)” value ([2]; 0.3 to 30 mg/kg) of the same compound?
**A.** 0.894

**Q.** With `Br.Oc1ccc(C2CNCc3c2ccc(O)c3O)cc1O` (stereo not drawn) [compound (II), 7,8-dihydroxy-4-(3,4-dihydroxyphenyl)-1,2,3,4-tetrahydroisoquinoline hydrobromide] as the compound, how does the “Addition effect (AUC ratio)” value ([3]; 3 mg/kg oral + ascorbic acid 15 mg/kg) read?
**A.** 1.39

**Q.** What about the “Addition effect (AUC ratio)” value ([3]; 3 mg/kg oral, none (control)) of the same compound?
**A.** 1.00

**Q.** What about the AUC(0-t) at 8 h [3, 4] of the same compound?
**A.** 116.6 ± 0.1 ng·h/mL

**Q.** What about the AUC(0-t) at 8 h [3, 5] of the same compound?
**A.** 83.6 ± 4.7 ng·h/mL

**Q.** And the Cmax [3, 4]?
**A.** 89.6 ± 11.8 ng/mL

**Q.** And the Cmax [3, 5]?
**A.** 95.6 ± 42.2 ng/mL

**Q.** And the Tmax [3, 4]?
**A.** 37.8 ± 7.8 min

**Q.** And the Tmax [3, 5]?
**A.** 25.2 ± 5.4 min

**Q.** And the “increase of AUC value” ([3]; with ascorbic acid)?
**A.** about 1.4 -fold

**Q.** What does the source list for `CS(=O)(=O)O.Oc1ccc(C2CNCCc3c2cc(O)c(O)c3Cl)cc1` (stereo not drawn) [compound (III), 6-chloro-2,3,4,5-tetrahydro-1-(4-hydroxyphenyl)-1H-3-benzazepine-7,8-diol methanesulfonate, reference compound]?
**A.** increase of AUC value ([3]; dog, in vivo): about 3.3 -fold; AUC(0-t) at 8 h [3, 6]: 197 ± 12.5 ng·h/mL; AUC(0-t) at 8 h [3, 7]: 59.8 ± 16.9 ng·h/mL; Cmax [3, 6]: 91.9 ± 0.4 ng/mL; Cmax [3, 7]: 39 ± 16.6 ng/mL; Tmax [3, 6]: 30 ± 15 min; Tmax [3, 7]: 45 ± 15 min
